According to patent publication US8476461B2, “Dipyrromethene-boron hydrophilic fluorescent compounds” (Centre National de la Recherche Scientifique (C.N.R.S.), priority 2008, dated 2013):
Marks after values point to notes of the source that are not given here.

Legend:
[1] = Optical / fluorescence properties (absorption, emission, extinction coefficient, quantum yield, lifetime); type: physicochemical
[2] = Water solubility and hydrophilic nature; type: physicochemical; conditions: for solubility in water (in words): water at pH=7, in carboxylate form
[3] = asterisk: in water and PBS buffer

Compound | Φ ([1]; in dichloromethane) | ε ([1]; in dichloromethane) | λabs ([1]; in dichloromethane) | λem ([1]; in dichloromethane) | water-soluble (in words) [2] | Φ [1, 3] | ε [1, 3] | λabs [1, 3] | λem [1, 3] | also measured
COCCOCC#C[B-]1(C#CCOCCOC)n2c(C)cc(C)c2C(c2ccc(I)cc2)=C2C(C)=CC(C)=[N+]21 [Ia-1] | 65% | 90000 M⁻¹ cm⁻¹ | 500 nm | 511 nm |  |  |  |  |  | 
CCC1=C(C)C2=C(c3ccc(I)cc3)c3c(C)c(CC)c(C)n3[B-](C#CCOCCOC)(C#CCOCCOC)[N+]2=C1C [Ia-2] | 80% | 82000 M⁻¹ cm⁻¹ | 522 nm | 488 nm |  |  |  |  |  | 
COCCOCC#C[B-]1(C#CCOCCOC)n2c(/C=C/c3ccc(OCCOCCOC)cc3)cc(C)c2C(c2ccc(I)cc2)=C2C(C)=CC(/C=C/c3ccc(OCCOCCOC)cc3)=[N+]21 [Ia-3] | 75% | 126600 M⁻¹ cm⁻¹ | 646 nm | 371 nm |  |  |  |  |  | 
CCC1=C(C)C2=C(c3ccc(I)cc3)c3c(C)c(CC)c(C)n3[B-](C#CCN(C)C)(C#CCN(C)C)[N+]2=C1C [Ic-0] |  |  |  |  |  |  |  |  |  | ζ (fluorescence lifetime) ([1]; CH2Cl2): 6.6 ns; Fluorescence λem ([1]; CH2Cl2, 6.1×10^−7 M): 533 nm; Fluorescence φ ([1]; CH2Cl2, 6.1×10^−7 M): 48%
CCC1=C(C)C2=C(c3ccc(I)cc3)c3c(C)c(CC)c(C)n3[B-](C#CC[N+](C)(C)CCCS(=O)(=O)[O-])(C#CC[N+](C)(C)CCCS(=O)(=O)[O-])[N+]2=C1C [Ic-1] |  |  |  |  | water-soluble | 61* % | 72000* M^−1 cm^−1 | 519* nm | 530* nm | Fluorescence λem ([1]; EtOH): 532 nm; Fluorescence φ ([1]; EtOH): 71%; fluorescence lifetime ([1]; H2O): 7.0 ns; Fluorescence λem ([1]; PBS buffer, 4.6×10^−7 M): 530 nm; Fluorescence φ ([1]; PBS buffer, 4.6×10^−7 M): 61%
CCOC(=O)c1ccc(C2=C3C(C)=C(CC)C(C)=[N+]3[B-](C#CC[N+](C)(C)CCCS(=O)(=O)[O-])(C#CC[N+](C)(C)CCCS(=O)(=O)[O-])n3c(C)c(CC)c(C)c32)cc1 [Ic-2] |  |  |  |  |  |  |  |  |  | Fluorescence λem ([1]; EtOH): 533 nm; Fluorescence φ ([1]; EtOH): 45%
CCC1=C(C)C2=C(c3ccc(C#Cc4ccc5ccc6c(C(=O)OCCOCCOC)ccc7ccc4c5c76)cc3)c3c(C)c(CC)c(C)n3[B-](C#CC[N+](C)(C)CCCS(=O)(=O)[O-])(C#CC[N+](C)(C)CCCS(=O)(=O)[O-])[N+]2=C1C [Ic-3] |  |  |  |  |  |  |  |  |  | Fluorescence λem ([1]; EtOH): 533 nm; Fluorescence φ ([1]; EtOH): 39%

Further lines, with some results ahead:

Φ ([1]; in dichloromethane) | ε ([1]; in dichloromethane) | λabs ([1]; in dichloromethane) | λem ([1]; in dichloromethane) | water-soluble (in words) [2] | Φ [1, 3] | ε [1, 3] | λabs [1, 3] | λem [1, 3] | Compound | also measured
85% | 80000 M⁻¹ cm⁻¹ | 522 nm | 488 nm |  |  |  |  |  | CCOC(=O)c1ccc(C2=C3C(C)=C(CC)C(C)=[N+]3[B-](C#CCOCCOC)(C#CCOCCOC)n3c(C)c(CC)c(C)c32)cc1 [Ia-6] | 
50% | 78500 M⁻¹ cm⁻¹ | 501 nm | 513 nm | water-soluble | 60* % | 74000* M^−1 cm^−1 | 494* nm | 506* nm | COCCOCC#C[B-]1(C#CCOCCOC)n2c(C)cc(C)c2C(c2ccc(C(=O)O)cc2)=C2C(C)=CC(C)=[N+]21 [Ia-9] | solubility in water (in words) [2]: soluble in water
 |  |  |  | water-soluble | 70* % | 65000* M^−1 cm^−1 | 517* nm | 530* nm | CCC1=C(C)C2=C(c3ccc(C(=O)O)cc3)c3c(C)c(CC)c(C)n3[B-](C#CCOCCOC)(C#CCOCCOC)[N+]2=C1C [Ia-10] | solubility in water (in words) [2]: soluble in water
74% | 118000 M⁻¹ cm⁻¹ | 647 nm | 662 nm |  |  |  |  |  | COCCOCC#C[B-]1(C#CCOCCOC)n2c(/C=C/c3ccc(OCCOCCOC)cc3)cc(C)c2C(c2ccc(C(=O)O)cc2)=C2C(C)=CC(/C=C/c3ccc(OCCOCCOC)cc3)=[N+]21 [Ia-11] | 
 |  |  |  | water-soluble | 70* % | 70000* M^−1 cm^−1 | 564* nm | 578* nm | COCCOCC#C[B-]1(C#CCOCCOC)n2c(/C=C/c3ccc(OCCOCCOC)cc3)cc(C)c2C(c2ccc(C(=O)O)cc2)=C2C(C)=CC(C)=[N+]21 [Ia-12] | solubility in water (in words) [2]: soluble in water
30% | 65000 M⁻¹ cm⁻¹ | 500 nm | 513 nm |  |  |  |  |  | COCCOCC#C[B-]1(C#CCOCCOC)n2c(C)cc(C)c2C(c2ccc(C(=O)NCCN)cc2)=C2C(C)=CC(C)=[N+]21 [Ia-13] | 
80% | 84000 M⁻¹ cm⁻¹ | 501 nm | 511 nm |  |  |  |  |  | CCOC(=O)CNC(=O)c1ccc(C2=C3C(C)=CC(C)=[N+]3[B-](C#CCOCCOC)(C#CCOCCOC)n3c(C)cc(C)c32)cc1 [Ia-14] | 
60% | 67000 M⁻¹ cm⁻¹ | 501 nm | 511 nm | water-soluble | 50* % | 62000* M^−1 cm^−1 | 495* nm | 507* nm | COCCOCC#C[B-]1(C#CCOCCOC)n2c(C)cc(C)c2C(c2ccc(C(=O)NCC(=O)O)cc2)=C2C(C)=CC(C)=[N+]21 [Ia-15] | 
